Measured values reported in US20130030055A1, “COMPOSITIONS AND METHODS FOR TREATING HAIR LOSS, HAIR THINNING, AND HAIR COLOR LOSS” (priority 2010, published 2013).

Assays:
Assay type in all cases: in vivo, human
[1] = tested on: eyelashes; assay: Randomized vehicle-controlled study: overall eyelash prominence by GEA scale; settings: week 16; ITT; 0.03% solution once daily to upper eyelid margins (107/137); p<0.0001 vs vehicle
Procedure: The objective of this study was to evaluate the safety and efficacy of bimatoprost 0.03% solution once daily compared with vehicle in increasing overall eyelash prominence following dermal administration to the upper eyelid margins.
During the screening visit, each subject was assessed for inclusion/exclusion criteria. Qualifying subjects were randomly allocated in a 1:1 ratio to treatment with bimatoprost 0.03% solution or vehicle, to be applied to both upper eyelid margins once daily in the evening for 4 months.
Subjects applied study medication to the upper eyelid margins using the supplied, disposable, single-use-per-eye applicator once daily in the evening for 4 months. Subjects were instructed to dab or blot any excess study medication runoff on the area outside the upper eyelash margin with a tissue or other absorbent cloth; the upper lid margin was to feel evenly and lightly moist without runoff. Subjects were instructed not to apply study medication to the lower eyelash line. […]
For the primary efficacy endpoint, a clinical response was defined as at least a 1-grade increase in the GEA score from baseline at month 4 (week 16). […] The proportion of subjects with at least a 1-grade increase from baseline was summarized by a frequency table and analyzed by the Pearson's chi-square test for 2-by-2 tables at each visit. […]

[2] = tested on: eyebrows; assay: Eyebrow growth after chemotherapy-induced eyebrow loss (Example 3); settings: person, eyebrows lost after chemotherapy
Source text: A person participates in a clinical study for eyebrow growth. The patient has lost both their eyebrows as a result of recent treatments of chemotherapy. Bimatoprost 0.03% is applied along the eyebrow line of both eyes. After approximately 4 weeks, the person begins to experience eyebrow growth. […] The person is extremely satisfied with the results and no longer needs to apply make-up in place of real eyebrows.

[3] = Randomized vehicle-controlled study: adverse events
Procedure: (§1) Safety measurements collected during this study included adverse events, ophthalmic examination variables (iris color, IOP, visual acuity, biomicroscopy, and ophthalmoscopy), physical examination, vital signs, and pregnancy testing.
Safety data (adverse events, ophthalmic examination variables, physical examination, and vital signs variables) were summarized by descriptive statistics and/or frequency tables and were analyzed by appropriate nonparametric statistical methods (Pearson's chi-square test, Wilcoxon rank sum test) and/or parametric tests (ANOVA, t-test). The safety analyses were based on the safety population. No data imputation for missing visits or values was performed.

[4] = Randomized vehicle-controlled study: intraocular pressure; settings: eye as sampling unit
Procedure: as §1
Iris color was recorded for each subject at every study visit. Iris color was grouped as light (blue, blue-gray, blue/gray-brown, green, green-brown, hazel, and other) and dark (brown and dark brown). If the “other” category contained black in the description, it was grouped as dark. IOP (measured at approximately the same time of day at each visit), visual acuity, and biomicroscopy data were collected at screening, week 1, and months 1, 2, 3, 4, and 5. Ophthalmoscopy (dilated) was performed at screening and month 4.
IOP measurements were collected twice for each eye. If the 2 measurements differed by more than 2 mmHg, a third measurement was taken on that eye. If 2 measurements were collected, the average of the 2 was recorded as the IOP for a particular eye; if a third measurement was collected, the median measurement was recorded as the IOP for that eye. As all subjects were treated bilaterally, the average of the subject's right and left eye IOP values was analyzed for each time point. In the case where data were collected for only 1 eye, the collected data served as the IOP for the subject at that time point. […] Within-group changes from baseline were analyzed by the paired t-test. All analyses were based on observed cases and no data imputations were performed.
All adverse events were summarized and analyzed by the following subgroups: age (<45, 45 to 65, and >65 years), gender, and race (Caucasian and non-Caucasian). This was performed for both the treatment and posttreatment periods. Analyses of IOP were stratified by 3 subgroups, according to baseline IOP (8 to 12 mm Hg, >12 to 15 mm Hg, and >15 mm Hg). These ranges were determined by taking the bottom tercile, middle tercile, and the top tercile of baseline IOPs. The sampling unit was the “eye” (ie, each subject contributed 2 data points). Within each of the subgroups, the number and percent of subjects with an IOP of ≦6 mmHg was summarized by treatment group and visit utilizing a frequency table and was analyzed by the Pearson's chi-square test or Fisher's exact tables for 2-by-2 tables for each visit. The sampling unit was the eye and not the subject. In addition, a scatterplot of baseline IOP versus final IOP for each treatment group was presented for the treatment period and post-treatment period.

- Intraocular pressure, Max ([4]; Week 12): 3.5 mmHg
- Intraocular pressure, Median ([4]; Week 12): −1.25 mmHg
- Intraocular pressure, Min ([4]; Week 12): −7.0 mmHg
- Intraocular pressure, Mean ([4]; Week 12, N 252): −1.54 mmHg
- Intraocular pressure, Max ([4]; Week 16): 6.0 mmHg
- Intraocular pressure, Median ([4]; Week 16): −1.50 mmHg
- Intraocular pressure, Min ([4]; Week 16): −7.5 mmHg
- Intraocular pressure, Mean ([4]; Week 16, N 252): −1.25 mmHg
- Intraocular pressure, Max ([4]; Week 20 (post-treatment)): 5.0 mmHg
- Intraocular pressure, Median ([4]; Week 20 (post-treatment)): −0.50 mmHg
- Intraocular pressure, Min ([4]; Week 20 (post-treatment)): −7.5 mmHg
- Intraocular pressure, Mean ([4]; Week 20 (post-treatment), N 262): −0.67 mmHg
SMILES: CCNC(=O)CCC/C=C\C[C@@H]1[C@@H](/C=C/[C@@H](O)CCc2ccccc2)[C@H](O)C[C@@H]1O [bimatoprost]
- Subjects with at least a 1-grade increase from baseline in overall eyelash prominence (GEA scale) [1]: 78.1%
- Eyebrow outcome following the study [2]: full, long eyebrows
- Time until eyebrow growth begins ([2]; applied along eyebrow line of both eyes): approximately 4 weeks
- Subjects reporting conjunctival hyperemia as an adverse event ([3]; 5/137, 0.03% solution once daily for 4 months): 3.6%
- Overall safety and tolerability ([3]; healthy adult subjects): safe and well-tolerated
